Values of other authors as cited in patent publication US20260232582A1, “PHARMACEUTICAL COMPOSITION OF ENSIFENTRINE WITH PHARMACEUTICALLY ACCEPTABLE PROPELLANTS” (CIPLA LIMITED, priority 2023, published 2026).

Columns and labels:
[1] = system: subjects; conditions: clinical trials involving more than 2,200 subjects
[2] = system: COPD patients; conditions: Phase 2; DPI and pMDI formulations
[3] = system: COPD

SMILES: COc1cc2c(cc1OC)-c1c/c(=N\c3c(C)cc(C)cc3C)n(CCNC(N)=O)c(=O)n1CC2 [Ensifentrine]
- Tolerability in clinical trials [1]: well tolerated
- Lung function in COPD patients [2]: significant improvements in lung function
- Primary endpoint (improvements in lung function) ([3]; nebulized, both ENHANCE-1 and ENHANCE-2 trials): met the primary endpoint
- Rate and risk of COPD exacerbations ([3]; pooled analysis from ENHANCE-1 and ENHANCE-2): significantly reduced
